Test results published in ChEMBL document CHEMBL3507680, “University of Dundee, Gates Library screen for HepG2 cell viability”.

Assay: Human HepG2 cell viability assay in 384 well format
Assay type: toxicity, cell-based
Set-up: dose 125 nL, time 70.5 hour; concentration not given beside the values
Settings: HepG2 cells, read-out: Inhibition

SMILES	cytotoxicity at 70.5 h [%]
COc1ccc(CC(C)Nc2cccc(SC)c2)cc1 (stereo unspecified)	-5.87
CSc1ccc(C(=O)C2CCCN(C(=O)CCn3cncn3)C2)cc1 (stereo unspecified)	-16.6
COC(=O)c1cc(CN2CCN(c3ncccc3C)CC2)ccc1O	39.9
Cc1cccc(-n2nc(CC(C)C)nc2CCC(=O)N(C)C)c1	0.846
CC(C)n1ccnc1C1CCCN(Cc2ccc(F)c(F)c2)C1 (stereo unspecified)	38
CCc1nccn1CCCNC(=O)c1cnn(-c2ccccc2OC)c1	-5.05
O=C1CCC2(CCOC2)CN1CCCOc1cccnc1 (stereo unspecified)	0.321
CCNC(=O)C1CCN(c2cc(-c3ccccc3)nc3ccnn23)C1 (stereo unspecified)	-0.497
CSc1nccc(NCC2CNCCOC2)n1 (stereo unspecified)	-11.3
CSCCC(=O)N1CCC(c2nccn2Cc2cscn2)CC1	-5.4
CCN1CCN(C2(C(=O)NC3CCCC3)Cc3ccccc3C2)CC1	-3.96
CC(C)c1cc(C(=O)N2CCN(CC3CC3)[C@@H]3CS(=O)(=O)C[C@@H]32)no1	-3.21
O=C(c1cc(Cn2ccc3ccccc32)[nH]n1)N1CCCCC1CO (stereo unspecified)	10.4
CC(C)N1CCOC(CC(=O)N2CCCN(c3ccc(F)cc3)CC2)C1 (stereo unspecified)	-3.4
Cc1cc(C(=O)N2CCC(c3nnc(Cn4ccnc4)n3C)CC2)cs1	-9.51
CN1C(=O)C2(CCN(c3ncccc3C(=O)O)CC2)c2ccccc21	-8.18
Cc1cccnc1CN1CCN(C(=O)c2cnn(C(C)C)c2)CC1	15.6
CCc1cnc(N)nc1NC(C)c1ccc(C)c(C)c1 (stereo unspecified)	-0.902
CN(C)C(=O)CN1C[C@@H]2CC[C@H](C1)N(Cc1c(Cl)cncc1Cl)C2	-9.62

SMILES	cytotoxicity at 70.5 h [%]
CC(=O)c1ccc(N2CCCC(CO)(Cc3ccccc3C)C2)nc1 (stereo unspecified)	-3.1
CCC(C)Nc1ccc(-c2nc(-c3cccc(OC)c3OC)no2)cn1 (stereo unspecified)	13.1
CC(O)CN1CCc2onc(-c3ccccc3F)c2C1 (stereo unspecified)	-22.3
CS(=O)(=O)CCc1ncnn1-c1ccc(F)c(Cl)c1	-2.51
Cc1ccc(CN2CCNC(=O)C2CC(=O)N2CCSCC2)o1 (stereo unspecified)	2.5
Cn1c(-c2ccc(F)cc2)cn2cc(C(=O)N3CC[C@@H](O)C3)nc2c1=O	-10.1
NCc1cn(CC2CCCN(C(=O)NCc3ccc(Cl)cc3)C2)nn1 (stereo unspecified)	2.71
CN(C)CCCn1ccc(-c2cccc(-c3ccccn3)c2)n1	15.8
CC[C@@H](CO)NC(=O)c1coc(COc2ccc3sc(C)nc3c2)n1	-12.1
COc1cc(NC2CCS(=O)(=O)CC2)ncn1	-16.4
Nc1cc(C(=O)NCC2CCN(Cc3ccncc3F)C2)ccn1 (stereo unspecified)	20.9
COCCC1(C(=O)O)CCCN(C(=O)c2cnc3c(c2)CCCC3)C1 (stereo unspecified)	-14.8
CCn1nc(C)c(CN(CCOC)Cc2ccccn2)c1C	-6.94
NC(=O)C1CCN(CC(=O)N(Cc2ccccc2)Cc2nccs2)CC1	-7.45
Cc1noc(CN(C)c2nc(-c3ccco3)nc3c2CCN(C)CC3)n1	-12.8
CSc1ncccc1C(=O)N(C)C(C)Cc1ccccn1 (stereo unspecified)	-18.1
O=C(NCCSc1ccccc1)[C@H]1CNC[C@H](C(=O)N2CCOCC2)C1	-6.2
Cc1nccnc1N1CCC(Cc2ccccc2Cl)(C(=O)O)CC1	-11.4
O=C(c1ccc2ncsc2c1)N1CCC(C(=O)O)(n2cccn2)CC1	-8.58

SMILES	cytotoxicity at 70.5 h [%]
CC(C)c1noc(CCNC(=O)C2COc3ccccc3C2)n1 (stereo unspecified)	13.6
COCCN1CCc2onc(C(c3ccccc3)c3ccccc3)c2C1	-8.42
O=C1CCCc2occ(C(=O)N3CCCC(O)(CO)C3)c21 (stereo unspecified)	31
C[C@@H]1CN(C(=O)C2CCS(=O)(=O)CC2)CC[C@@]1(O)C1CCOCC1	-11
CCOc1ccc(-c2ccnc(C3CC3)n2)cc1C(=O)O	-3.39
Cc1noc(CC2CCN(Cc3ccc(CCC(C)(C)O)cc3)CC2)n1	-10.5
COc1cccc2c1OCCCN(c1nc3c(c(=O)[nH]1)CCNCC3)C2	-3.8
O=C1CC(NS(=O)(=O)N2CCOCC2)CN1Cc1ccc(F)cc1 (stereo unspecified)	-2.75
CCOCCn1nc(C2CCNCC2)n(Cc2ccccc2)c1=O	3.02
CCCc1cncnc1N1CCC(NCc2ccncc2)CC1	-13.1
CC(C)c1ccc(CN2CCCC3(CC2)CN(C)C(=O)O3)cc1 (stereo unspecified)	-1.93
CCc1nnc(N2CCN(c3ccccc3)C(=O)C2)o1	-7.77
CNc1nc(C(=O)NCc2cccnc2N(C)C2CCCCC2)cs1	12.4
Cc1ccc(C(=O)N2CCC3(CC2)C(=O)NCCN3C)cc1O	-6.34
COc1c(F)cc(CN2CCC3(CC2)C(C(=O)O)CC(=O)N3C)cc1Cl (stereo unspecified)	-3.91
Cc1nc(C2CCCNC2)cc(N2CCc3nc(N)sc3C2)n1 (stereo unspecified)	17.4
CC(C)N1CCC(CC(=O)N2CCC(C(O)c3nccn3C)CC2)CC1 (stereo unspecified)	-3.4
Cc1ccnc(NCc2cn3c(C)csc3n2)n1	-11.5
